Where a name gives a salt, the structure may show the parent alone. Read-outs that look alike come from different tables or passages of the source.
Tests used:
human eNOS = biological target: T1, human eNOS (Homo sapiens, UniProt P29474); test: Inhibition of purified human eNOS ([14C]-L-arginine to citrulline conversion); format: biochemical; details: purified human enzyme, 30° C., 0.5 μM [14C]-L-arginine; read-out: Purified Human Enzyme Kd tNOS
T1 construct: made in house
Experimental: (§1) The inhibition of purified human NO synthases was determined following preparation of human nNOS (Furfine et al. (1993) Biochem. 32, 8512-8517), iNOS (Sherman et al. (1993) Biochem. 32, 11600-11605) and eNOS (Garvey et al. (1994) Arch. Bioch. Biophys., in press) as described. Their activity was monitored by the conversion of [^14C]-L-arginine to citrulline as described by Schmidt et al. ((1991) Proc. Natl. Acad. Sci. USA 88, 365-369) in reaction mixtures (100 μl) containing 50 mM HEPES pH 7.0, 8 μM tetrahydrobiopterin, 1 mM NADPH and 0.5 μM [^14C]-L-arginine (30,000 cpm) at 30° C.

human nNOS = biological target: T2, human nNOS (Homo sapiens, UniProt P29475); test: Inhibition of purified human nNOS ([14C]-L-arginine to citrulline conversion); format: biochemical; details: 30° C., 0.5 μM [14C]-L-arginine, read-out: Purified Human Enzyme Kd nNOS
T2 construct: made in house
Experimental: as §1

iNOS in rat aortic rings = biological target: T3, iNOS in rat aortic rings (Rattus norvegicus, UniProt Q06518); test: Inhibition of iNOS in situ in rat aortic rings (LPS-induced loss of tone, endothelium-denuded rings); format: cell-based; details: for IC50: endothelium-denuded rings, LPS 6 h, mean ±SEM (n), read-out: IC50 iNOS in rate sortic rings; for Selectivity for iNOS: rat aortic rings, iNOS vs eNOS
T3 construct: During this time a progressive loss of tone occurred because of iNOS induction; from tissue; host or cells: rat thoracic aorta rings, endothelium-denuded, exposed to LPS
Experimental: (§2) The inhibition of eNOS and iNOS in situ in rat aortic rings was assessed by measuring the increases in ring tension caused by NO synthase inhibition. For studies of basal tone (reflecting eNOS), rings of thoracic aorta with intact endothelium were prepared as described previously (Rees et al. (1989) Br. J. Pharmacol. 96, 418-424) and cumulative concentration curves obtained for the inhibitors in the presence of a threshold concentration of phenylephrine (ED10≈10 nM). For studies of induced smooth muscle tone (reflecting iNOS), endothelium-denuded rings were exposed to LPS (0.1 μg/ml from S. typhosa) in the presence of phenylephrine at approximately ED90 for 6 h as described previously (Rees et al. (1990) Biochem. Biophys. Res. Commun. 173, 541-547). During this time a progressive loss of tone occurred because of iNOS induction. Cumulative concentration curves were then obtained for the inhibitors.

eNOS in rat aortic rings = biological target: T4, eNOS in rat aortic rings (Rattus norvegicus, UniProt Q62600); test: Inhibition of eNOS in situ in rat aortic rings (basal tone, intact endothelium); format: cell-based; details: rings with intact endothelium; for inhibition at 300 µM: read-out: inhibition at 300 μM, cNOS in rat sortic rings; for IC50: basal tone, mean ±SEM (n), read-out: IC50 cNOS in rat sortic rings
T4 construct: from tissue; host or cells: rat thoracic aorta rings with intact endothelium
Experimental: as §2

human iNOS [1] = biological target: T5, human iNOS (Homo sapiens, UniProt P35228); test: Inhibition of purified human iNOS ([14C]-L-arginine to citrulline conversion); format: biochemical; parameters: made in house; details: for Selectivity for iNOS vs. cNOS: purified human enzymes, ratio of Kd; for Selectivity for iNOS vs. cNOS [relative to LNMMA]: value in square brackets
Experimental: as §1

human iNOS [2] = biological target: T5, human iNOS; test: Inhibition of recombinant human iNOS (baculovirus/insect cell cytosol, spectrophotometric microtitre plate assay); format: biochemical; parameters: made in house; host or cells: baculovirus/insect cell system; insect cytosol assayed unpurified; details: 37° C., L-arginine 30 μM, steady-state 15-30 min; mean ±SEM (n)
Experimental: Inhibition of recombinant human iNOS was determined following expression in a baculovirus/insect cell system (Charles et al (1994) In: The Biology of Nitric Oxide 4, Moncada S., Feelisch M., Busse R. and Higgs E. A., eds., Portland Press, London, pp 316-320), assaying the insect cytosol for NO synthase in a microtitre plate assay based on the spectrophotometric assay described previously (Knowles et al (1990) Biochem. Biophys. Res. Commun. 172, 1042-1048). The assay was conducted at 37° C. in reaction mixtures containing HEPES (100 mM), DTT (0.1 mM), tetrahydrobiopterin (5 μM), NADPH (100 μM), haemoglobin (5 μM), L-arginine (30 μM) and inhibitor (0-300 μM), measuring the absorbance change at 405-420 nm, and determining the steady-state inhibition between 15 and 30 minutes incubation.

eNOS = biological target: T6, eNOS (Mus musculus, UniProt P70313); test: Blood pressure in normal conscious mice (eNOS in vivo); details: conscious female CD-1 mice, dose range 1-1000 mg/kg, intravenous
T6 construct: from tissue; host or cells: whole animal: female CD-1 mice, untreated
Experimental: (§3) The inhibition of eNOS and iNOS in vivo was assessed by the effects of inhibitors on blood pressure in either normal (eNOS) or endotoxin shocked (iNOS) conscious mice. Female CD-1 mice (25-35 g) were anaesthetised briefly with isofluorane (2%). Cannula lines were implanted in the femoral vein, tunnelled subcutaneously to exit at the top of the back and connected to a swivel tether system for continuous monitoring of blood pressure and for inhibitor administration respectively. Following recovery from surgery, animals with mean blood pressures in the normal range (90-110 mm Hg) were used to obtain cumulative concentration curves for inhibitors on blood pressure either without further treatment (“normal mice”) or 7 h after administration of lipopolysaccharide (12.5 mg/kg of LPS from E. coli 026:B6 intravenously over 30 s) to induce shock (“shocked mice”).

iNOS [3] = biological target: T7, iNOS (Mus musculus, UniProt P29477); test: Blood pressure in endotoxin shocked conscious mice (iNOS in vivo); details: conscious female CD-1 mice, 7 h after LPS 12.5 mg/kg i.v.
T7 construct: from tissue; host or cells: whole animal: female CD-1 mice, 7 h after LPS
Experimental: as §3

iNOS [4] = test: Endotoxin induced vascular (plasma) leakage in rats; format: in vivo
Experimental: The effects of Example 7 on endotoxin induced vascular leakage were assessed in rats as described by Laszlo et al ((1994) Brit. J. Pharmacol. 111 1309-1315). […] However, Example 7 did abolish the iNOS-dependent delayed plasma leakage, with an ED50 of 1 mg/kg.

[5] = purified human iNOS, 30° C., 0.5 μM [14C]-L-arginine, read-out: Purified Human Enzyme Kd iNOS

Br.Br.N=C(CF)NCCS(=O)(=O)CC(N)C(=O)O (stereo not drawn) [Example 1, 2-Amino-6-(1-imino-2-fluoroethylamino)-4,4-dioxo-4-thiahexanoic acid dihydrobromide]
Kd (human eNOS): 23 µM | Kd (human nNOS): 26 µM | IC50 (iNOS in rat aortic rings): 1.7 ± 0.7 µM | Selectivity for iNOS (iNOS in rat aortic rings): >>200-fold | inhibition at 300 µM (eNOS in rat aortic rings): 8% | IC50 (eNOS in rat aortic rings): > 300 µM | Selectivity for iNOS vs. cNOS (human iNOS [1]): 12 | Kd (human iNOS [1]; [5]): 1.9 µM | Selectivity for iNOS vs. cNOS [relative to LNMMA] (human iNOS [1]): 33 | IC50 (human iNOS [2]): 5.5 ± 0.55 µM

COCC(=N)NCCS(=O)(=O)CC(N)C(=O)O (stereo not drawn) [Example 2, 2-Amino-6-(1-imino-2-methoxyethylamino)-4,4-dioxo-4-thiohexanoic acid dihydrobromide dihydrate]
IC50 (iNOS in rat aortic rings): 33 ± 13 µM | Selectivity for iNOS (iNOS in rat aortic rings): >10-fold | inhibition at 300 µM (eNOS in rat aortic rings): 26% | IC50 (eNOS in rat aortic rings): > 300 µM | IC50 (human iNOS [2]): 30 ± 3 µM

CC(=O)OCC(=N)NCCS(=O)(=O)CC(N)C(=O)O (stereo not drawn) [Example 3, dihydrobromide]
IC50 (human iNOS [2]): > 300 µM

N=C(COCc1ccccc1)NCCS(=O)(=O)CC(N)C(=O)O (stereo not drawn) [Example 4, hydrobromide]
IC50 (human iNOS [2]): > 300 µM

CSCC(=N)NCCS(=O)(=O)CC(N)C(=O)O (stereo not drawn) [Example 5, 2-Amino-6-(2-methylthio-1-imioethylamino)-4,4-dioxo-4-thiohexanoic acid]
IC50 (human iNOS [2]): 95 ± 3 µM

N=C(CO)NCCS(=O)(=O)CC(N)C(=O)O (stereo not drawn) [Example 6, 2-Amino-6-(2-hydroxy-1-iminoethylamino)-4,4-dioxo-4-thiahexanoic acid 1.67 hydrochloride 0.33 hydrobromide]
IC50 (human iNOS [2]): > 300 µM

CC(=N)NCCS(=O)(=O)CC(N)C(=O)O (stereo not drawn) [Example 7, 2-Amino-6-(1-iminoethylamino)-4,4-dioxo-4-thiahexanoic acid]
Kd (human eNOS): 29 µM | Kd (human nNOS): 18 µM | IC50 (iNOS in rat aortic rings): 1.5 ± 0.3 µM | Selectivity for iNOS (iNOS in rat aortic rings): 67-fold | IC50 (eNOS in rat aortic rings): 101 ± 21 µM | effect on blood pressure in normal mice (eNOS): no effect on blood pressure | effect on blood pressure in shocked mice (iNOS [3]): restore fully the blood pressure to the normal range | aggravation of the endotoxin-induced plasma leakage (iNOS [4]; doses up to 5 mg/kg, administered concurrently with endotoxin): did not cause aggravation | ED50, abolition of iNOS-dependent delayed plasma leakage (iNOS [4]; endotoxin induced): 1 mg/kg | Kd (human iNOS [1]; footnote: inhibition strongly time dependant on iNOS, read-out: Kd on iNOS, time dependent inhibition): 0.1 µM | Selectivity for iNOS vs. cNOS (human iNOS [1]): 27 | Kd (human iNOS [1]; [5]): 2.9 µM | Selectivity for iNOS vs. cNOS [relative to LNMMA] (human iNOS [1]): 73 | IC50 (human iNOS [2]): 14 ± 0.6 µM

CC(=N)NCC[S+]([O-])CC(N)C(=O)O (stereo not drawn) [Example 8, 2-Amino-6-(1-iminoethylamino)-4-oxo-4-thiahexanoic acid]
Kd (human eNOS): 100 µM | Kd (human nNOS): 68 µM | IC50 (iNOS in rat aortic rings): 2.7 ± 0.2 µM | Selectivity for iNOS (iNOS in rat aortic rings): >100 fold | inhibition at 300 µM (eNOS in rat aortic rings): 42% | IC50 (eNOS in rat aortic rings): > 300 µM | Selectivity for iNOS vs. cNOS (human iNOS [1]): 11 | Kd (human iNOS [1]; [5]): 9.1 µM | Selectivity for iNOS vs. cNOS [relative to LNMMA] (human iNOS [1]): 30

From patent publication USRE39576E1, “Enzyme inhibitors” (Smithkline Beecham Corporation, priority 1994, dated 2007)
